Reference: patent publication US10723741B1, “DNA polymerase IIIC inhibitors and use thereof” (Acurx Pharmaceuticals, LLC, priority 2018, dated 2020)
≈ marks a conversion by molar mass, not a printed value.

Legend:
Type in all cases: cell-based
[1] = system: Staphylococcus aureus NRS384 (MRSA); test: Broth microdilution MIC, S. aureus NRS384 (MRSA); conditions: Staphylococcus aureus; broth microdilution, 37° C., 20 hours; read-out: MIC NRS 384 (MRSA)
In short: (§1)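 Broth microdilution in strain-specific test medium with ~5.0×10^5 cfu/ml inoculum, 1% DMSO and two-fold compound dilutions from 64 to 0.0625 μg/ml. Plates were held 20 hours at 37° C in ambient air. S. pneumoniae colonies were grown beforehand on blood agar in 5% CO2.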

[2] = system: Staphylococcus aureus ATCC 29213 (MSSA); test: Broth microdilution MIC, S. aureus ATCC 29213 (MSSA); conditions: broth microdilution, 37° C., 20 hours, read-out: MIC S. aureus ATCC 29213 (MSSA)
In short: as §1

[3] = system: Enterococcus faecalis ATCC 29212; test: Broth microdilution MIC, E. faecalis ATCC 29212; conditions: ATCC29212, broth microdilution, 37° C., 20 hours, read-out: MIC E. faecalis ATCC 29212
In short: as §1

[4] = system: Enterococcus faecium ATCC 700221 (VRE); test: Broth microdilution MIC, E. faecium ATCC 700221 (VRE); conditions: Enterococcus faecium; broth microdilution, 37° C., 20 hours; read-out: MIC E. faecium ATCC 700221 (VRE)
In short: as §1

[5] = system: Streptococcus pneumoniae ATCC 49619; test: Broth microdilution MIC, S. pneumoniae ATCC 49619; conditions: ATCC49619, broth microdilution, 37° C., 20 hours, read-out: MIC S. pneumoniae ATCC 49619
In short: as §1

[6] = system: Bacillus subtilis ATCC 6633; test: Broth microdilution MIC, B. subtilis ATCC 6633; conditions: ATCC6633, broth microdilution, 37° C., 20 hours, read-out: MIC B. subtilis ATCC 6633
In short: as §1

[7] = system: Escherichia coli ATCC 25922; test: Broth microdilution MIC, E. coli ATCC 25922 (MHIIB w & w/o 4 mM EDTA); conditions: broth microdilution, 37° C., 20 hours; for MIC: Escherichia coli, ATCC25922, without EDTA, read-out: MIC E. coli ATCC 25922; for MIC E. coli ATCC 25922 + 4 mM EDTA: with 4 mM EDTA
In short: as §1

| MIC [1] [µg/mL] | MIC [2] [µg/mL] | MIC [3] [µg/mL] | MIC [4] [µg/mL] | MIC [5] [µg/mL] | MIC [6] [µg/mL] | MIC [7] [µg/mL] | MIC E. coli ATCC 25922 + 4 mM EDTA [7] | SMILES |
| --- | --- | --- | --- | --- | --- | --- | --- | --- |
| > 64 | > 64 | 64 (≈ 140 µM) | 64 (≈ 140 µM) | > 64 | 64 (≈ 140 µM) | > 64 | >64 µg/mL | O=C(O)COCCOCCn1ncc2nc(NCc3ccc(Cl)c(Cl)c3)[nH]c(=O)c21 [Compound 187, 2-(2-(2-(5-((3,4-dichlorobenzyl)amino)-7-oxo-6,7-dihydro-1H-pyrazolo[4,3-d]pyrimidin-1-yl)ethoxy)ethoxy)acetic acid] |
| 16 (≈ 32.9 µM) | 16 (≈ 32.9 µM) | 8 (≈ 16.4 µM) | 4 (≈ 8.22 µM) | 8 (≈ 16.4 µM) | 4 (≈ 8.22 µM) | > 64 | >64 µg/mL | O=c1[nH]c(NCc2ccc(Cl)c(Cl)c2)nc2cnn(CCOC3CCS(=O)(=O)CC3)c12 [Compound 188, 5-((3,4-dichlorobenzyl)amino)-1-(2-((1,1-dioxidotetrahydro-2H-thiopyran-4-yl)oxy)ethyl)-1H-pyrazolo[4,3-d]pyrimidin-7(6H)-one] |
| 16 (≈ 37 µM) | 16 (≈ 37 µM) | 16 (≈ 37 µM) | 8 (≈ 18.5 µM) | 64 (≈ 148 µM) | 16 (≈ 37 µM) | > 64 | 64 µg/mL | O=c1[nH]c(NCc2ccc(Cl)c(Cl)c2)nc2cnn(Cc3ccc(O)c(O)c3)c12 [Compound 189, 5-((3,4-dichlorobenzyl)amino)-1-(3,4-dihydroxybenzyl)-1H-pyrazolo[4,3-d]pyrimidin-7(6H)-one] |
| > 64 | > 64 | > 64 | > 64 | > 64 | > 64 | > 64 | >64 µg/mL | COc1ccc(Cn2ncc3nc(NCc4ccc(Cl)c(Cl)c4)[nH]c(=O)c32)cc1OC [Compound 190, 5-((3,4-Dichlorobenzyl)amino)-1-(3,4-dimethoxybenzyl)-1H-pyrazolo[4,3-d]pyrimidin-7(6H)-one] |
| 8 (≈ 19.5 µM) | 4 (≈ 9.73 µM) | 8 (≈ 19.5 µM) | 2 (≈ 4.86 µM) | 4 (≈ 9.73 µM) | 2 (≈ 4.86 µM) | > 64 | >64 µg/mL | O=c1[nH]c(NCc2ccc(Cl)c(Cl)c2)nc2cnn(CCOC/C=N/O)c12 [Compound 191, (E)-2-(2-(5-((3,4-dichlorobenzyl)amino)-7-oxo-6,7-dihydro-1H-pyrazolo[4,3-d]pyrimidin-1-yl)ethoxy)acetaldehyde oxime] |
| 2 (≈ 5.07 µM) | 2 (≈ 5.07 µM) | 4 (≈ 10.1 µM) | 2 (≈ 5.07 µM) | 4 (≈ 10.1 µM) | 1 (≈ 2.54 µM) | > 64 | >64 µg/mL | COC/C=C/Cn1ncc2nc(NCc3ccc(Cl)c(Cl)c3)[nH]c(=O)c21 [Compound 192, (E)-5-((3,4-dichlorobenzyl)amino)-1-(4-methoxybut-2-en-1-yl)-1H-pyrazolo[4,3-d]pyrimidin-7(6H)-one] |
| 4 (≈ 9.13 µM) | 4 (≈ 9.13 µM) | 8 (≈ 18.3 µM) | 4 (≈ 9.13 µM) | 4 (≈ 9.13 µM) | 1 (≈ 2.28 µM) | > 64 | >64 µg/mL | COCCOC/C=C/Cn1ncc2nc(NCc3ccc(Cl)c(Cl)c3)[nH]c(=O)c21 [Compound 193, (E)-5-((3,4-dichlorobenzyl)amino)-1-(4-(2-methoxyethoxy)but-2-en-1-yl)-1H-pyrazolo[4,3-d]pyrimidin-7(6H)-one] |
| > 64 | 64 | 32 | 32 | 16 | 8 | > 64 | 64 µg/mL | CCOC(=O)C1(Cn2ncc3nc(NCc4ccc(Cl)c(Cl)c4)[nH]c(=O)c32)CCNCC1.Cl [Compound 194, ethyl 4-((5-((3,4-dichlorobenzyl)amino)-7-oxo-6,7-dihydro-1H-pyrazolo[4,3-d]pyrimidin-1-yl)methyl)piperidine-4-carboxylate hydrochloride] |
| > 64 | > 64 | 64 | 64 | 16 | 8 | > 64 | >64 µg/mL | Cl.O=c1[nH]c(NCc2ccc(Cl)c(Cl)c2)nc2cnn(CC3(CO)CCNCC3)c12 [Compound 195, 5-((3,4-dichlorobenzyl)amino)-1-((4-(hydroxymethyl)piperidin-4-yl)methyl)-1H-pyrazolo[4,3-d]pyrimidin-7(6H)-one hydrochloride] |
| > 64 | > 64 | > 64 | > 64 | > 64 | > 64 | > 64 | >64 µg/mL | Cl.O=C(O)C1(Cn2ncc3nc(NCc4ccc(Cl)c(Cl)c4)[nH]c(=O)c32)CCNCC1 [Compound 196, 4-((5-((3,4-dichlorobenzyl)amino)-7-oxo-6,7-dihydro-1H-pyrazolo[4,3-d]pyrimidin-1-yl)methyl)piperidine-4-carboxylic acid hydrochloride] |
| 16 (≈ 35.4 µM) | 16 (≈ 35.4 µM) | 16 (≈ 35.4 µM) | 16 (≈ 35.4 µM) | 16 (≈ 35.4 µM) | 4 (≈ 8.86 µM) | > 64 | >64 µg/mL | CNC(=O)C(C)(C)CCCn1ncc2nc(NCc3ccc(Cl)c(Cl)c3)[nH]c(=O)c21 [Compound 198, 5-(5-((3,4-dichlorobenzyl)amino)-7-oxo-6,7-dihydro-1H-pyrazolo[4,3-d]pyrimidin-1-yl)-N,2,2-trimethylpentanamide] |
| 16 (≈ 36.5 µM) | 16 (≈ 36.5 µM) | 16 (≈ 36.5 µM) | 8 (≈ 18.3 µM) | 8 (≈ 18.3 µM) | 32 (≈ 73 µM) | > 64 | >64. ug/ml | CC(C)(CCCn1ncc2nc(NCc3ccc(Cl)c(Cl)c3)[nH]c(=O)c21)C(=O)O [Compound 199, 5-(5-((3,4-Dichlorobenzyl)amino)-7-oxo-6,7-dihydro-1H-pyrazolo[4,3-d]pyrimidin-1-yl)-2,2-dimethylpentanoic acid] |
| 8 (≈ 16 µM) | 8 (≈ 16 µM) | 16 (≈ 32 µM) | 8 (≈ 16 µM) | 16 (≈ 32 µM) | 2 (≈ 4 µM) | > 64 | >64 µg/mL | CNC(=O)C(CCCn1ncc2nc(NCc3ccc(Cl)c(Cl)c3)[nH]c(=O)c21)c1ccccc1 (stereo not shown) [Compound 200, 5-(5-((3,4-dichlorobenzyl)amino)-7-oxo-6,7-dihydro-1H-pyrazolo[4,3-d]pyrimidin-1-yl)-N-methyl-2-phenylpentanamide] |

| SMILES | MIC [1] [µg/mL] | MIC [2] [µg/mL] | MIC [3] [µg/mL] | MIC [4] [µg/mL] | MIC [5] [µg/mL] | MIC [6] [µg/mL] | MIC [7] [µg/mL] | MIC E. coli ATCC 25922 + 4 mM EDTA [7] |
| --- | --- | --- | --- | --- | --- | --- | --- | --- |
| C[Si](C)(C)CCOCNC(=O)Cn1ncc2nc(NCc3ccc(Cl)c(Cl)c3)[nH]c(=O)c21 [Compound 197, 2-(5-((3,4-dichlorobenzyl)amino)-7-oxo-6,7-dihydro-1H-pyrazolo[4,3-d]pyrimidin-1-yl)-N-((2-(trimethylsilyl)ethoxy)methyl)acetamide] | > 64 | > 64 | > 64 | > 64 | > 64 | > 64 | > 64 | >64 µg/mL |
